Laboratory results taken from US8809342B2, “Glucagon receptor modulators” (Pfizer Inc., priority 2010, dated 2014).

Biological target: T1, human glucagon receptor (Homo sapiens, UniProt P47871)
T1 construct: expressed in transfected cells; host or cells: CHO-K1 cells, stably transfected
Test: Glucagon cAMP assay (Cisbio cAMP detection)
Assay type: cell-based
Description: The Cisbio cAMP detection assay is used to determine the ability of punitive glucagon antagonist to block glucagon induced cAMP production. Potential glucagon antagonists are re-suspended and diluted in 100% DMSO. Prior to use in the Glucagon cAMP assay 100×DMSO compound stocks are diluted 20× with DMEM-F12 media (Invitrogen) containing either 0.1% or 4% BSA. 2 uls of 5× compound stocks are spotted into the appropriate wells of low binding white solid bottom 384 well plates (Corning). 2 uls of 5% DMSO or known glucagon antagonist are added to each plate to define the assay window. CHOK1 cells stably transfected with the human glucagon receptor are removed from culture flasks with cell dissociation buffer. Cell pellets are re-suspended, at a concentration of 8.3e^5 cells/ml in DMEM-F12 with or without 4% BSA and 200 uM IBMX. 6 uls of cell suspensions are added to the assay plates. Plates are incubated for 20 min at room temperature prior to the addition of a 100 pM challenge dose of glucagon. On a separate plate glucagon dose response curves are run to determine the EC50 of glucagon. After a 30 min room temperature incubation the reaction is terminated by the addition of lysis buffer containing the cAMP detection reagents. Plates are incubated for an additional 60 min at room temperature prior to being read on the Perkin Elmer fluorescent plate reader. Raw is converted to nM of cAMP produced based on a cAMP standard curve. Converted data is then analyzed using the Pfizer data analysis program. IC50 values are determined from the generated sigmoidal dose response curves. Kb values are the calculated using a modified Cheng-Prusoff equation.

T1 sequence (P47871 26-477): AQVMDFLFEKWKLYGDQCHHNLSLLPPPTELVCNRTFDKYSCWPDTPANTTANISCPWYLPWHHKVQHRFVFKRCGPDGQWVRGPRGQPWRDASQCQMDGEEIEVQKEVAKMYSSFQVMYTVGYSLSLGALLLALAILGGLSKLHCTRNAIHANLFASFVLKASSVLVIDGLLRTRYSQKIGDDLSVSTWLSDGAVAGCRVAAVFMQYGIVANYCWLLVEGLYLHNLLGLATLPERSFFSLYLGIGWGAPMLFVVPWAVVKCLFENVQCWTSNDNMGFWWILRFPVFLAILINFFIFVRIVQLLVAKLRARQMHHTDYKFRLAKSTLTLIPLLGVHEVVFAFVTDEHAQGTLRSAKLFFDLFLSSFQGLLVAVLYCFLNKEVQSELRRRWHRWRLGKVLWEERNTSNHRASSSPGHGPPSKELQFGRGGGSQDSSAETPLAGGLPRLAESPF

SMILES | Kb
CC(C)CC(Nc1cnc(C(=O)NCCC(=O)O)cn1)c1ccc(-c2ccc(C(F)(F)F)cc2)cc1 (racemic) [Example 1.16, (+/−)-3-(5-(3-methyl-1-(4′-(trifluoromethyl)biphenyl-4-yl)butylamino)pyrazine-2-carboxamido)propanoic acid] | 0.15 µM
CC(C)CC(Nc1ccc(C(=O)NCCC(=O)O)cn1)c1ccc(-c2ccccc2Cl)cc1 (racemic) [Example 1.44, (+/−)-3-(6-(1-(2′-chlorobiphenyl-4-yl)-3-methylbutylamino)nicotinamido)propanoic acid] | 0.58 µM
CCCC(Nc1ccc(C(=O)NCCC(=O)O)cn1)c1ccc(-c2ccc(C(F)(F)F)cc2)cc1 (single isomer, unassigned; isomer 1) [Example 1.8, 3-(6-(1-(4′-(trifluoromethyl)biphenyl-4-yl)butylamino)nicotinamido) propanoic acid, Isomer 1] | 1 µM
Cc1cc(NC(CC(C)C)c2ccc(C(=O)NCCC(=O)O)cn2)cc(C)c1-c1ccc(C(F)(F)F)cc1 (single isomer, unassigned; isomer 1) [Example 2.2, 3-(6-(1-(2,6-dimethyl-4′-(trifluoromethyl)biphenyl-4-ylamino)-3-methylbutyl)nicotinamido)propanoic acid, Isomer 1] | 0.054 µM
CC(C)CC(Nc1ncc(C(=O)Nc2nnn[nH]2)cn1)c1ccc(-c2ccc(C(F)(F)F)cc2)cc1 (racemic) [Example 1.19, (+/−)-2-(3-methyl-1-(4′-(trifluoromethyl)biphenyl-4-yl)butylamino)-N-(1H-tetrazol-5-yl)pyrimidine-5-carboxamide] | 0.89 µM
CC(C)CC(Nc1ccc(C(=O)NCCC(=O)O)cn1)c1ccc(-c2ccccc2F)cc1 (racemic) [Example 1.38, (+/−)-3-(6-(1-(2′-fluorobiphenyl-4-yl)-3-methylbutylamino)nicotinamido)propanoic acid] | 0.6 µM
CCC(Nc1ccc(C(=O)NCCC(=O)O)cn1)c1ccc(-c2ccc(C(F)(F)F)cc2)cc1 (single isomer, unassigned; isomer 2) [Example 1.13, 3-(6-(1-(4′-(trifluoromethyl)biphenyl-4-yl)propylamino)nicotinamido) propanoic acid, Isomer 2] | 0.15 µM
CC(C)CC(Nc1ccc(C(=O)NCCC(=O)O)cn1)c1ccc(-c2ccc(C(C)C)cc2)cc1 (racemic) [Example 1.57, (+/−)-3-(6-(1-(4′-isopropylbiphenyl-4-yl)-3-methylbutylamino)nicotinamido)propanoic acid] | 0.12 µM
COc1ccc(-c2ccc(C(CC(C)C)Nc3ccc(C(=O)NCCC(=O)O)cn3)cc2)cc1 (racemic) [Example 1.52, (+/−)-3-(6-(1-(4′-methoxybiphenyl-4-yl)-3-methylbutylamino)nicotinamido)propanoic acid] | 0.12 µM
Cc1cc(C(CC(C)C)Nc2ncc(C(=O)NCCC(=O)O)cn2)ccc1-c1ccc(C(F)(F)F)cc1 (racemic) [Example 1.26, (+/−)-3-(2-(3-methyl-1-(2-methyl-4′-(trifluoromethyl)biphenyl-4-yl)butylamino)pyrimidine-5-carboxamido)propanoic acid] | 0.39 µM
CC(C)C(Nc1ccc(C(=O)NCCC(=O)O)cn1)c1ccc(-c2ccc(C(F)(F)F)cc2)cc1 (single isomer, unassigned; (+)) [Example 1.14, (+)-3-(6-(2-methyl-1-(4′-(trifluoromethyl)biphenyl-4-yl)propylamino)nicotinamido)propanoic acid] | 0.99 µM
O=C(O)CCNC(=O)c1ccc(NC(c2ccc(-c3ccc(C(F)(F)F)cc3)cc2)C2CC2)nc1 (racemic) [Example 1.34, (+/−)-3-(6-(cyclopropyl(4′-(trifluoromethyl)biphenyl-4-yl)methylamino)nicotinamido)propanoic acid] | 0.55 µM
CC(C)CC(Nc1ccc(C(=O)NCCC(=O)O)cn1)c1ccc(-c2ccc(C(=O)N(C)C)cc2)cc1 (racemic) [Example 1.56, (+/−)-3-(6-(1-(4′-(dimethylcarbamoyl)biphenyl-4-yl)-3-methylbutylamino)nicotinamido)propanoic acid] | 5 µM
CCCC(Nc1ccc(C(=O)NCCC(=O)O)cn1)c1ccc(-c2ccc(C(F)(F)F)cc2)cc1 (racemic) [Example 1.7, (+/−)-3-(6-(1-(4′-(trifluoromethyl)biphenyl-4-yl)butylamino)nicotinamido)propanoic acid] | 0.17 µM
CC(C)CC(Nc1ccc(C(=O)NCCC(=O)O)cn1)c1ccc(-c2ccccc2)cc1 (racemic) [Example 1.37] | 0.22 µM
CC(C)CC(Nc1ccc(C(=O)NCCC(=O)O)cn1)c1ccc(-c2ccc(S(C)(=O)=O)cc2)cc1 (racemic) [Example 1.59, (+/−)-3-(6-(3-methyl-1-(4′-(methylsulfonyl)biphenyl-4-yl)butylamino)nicotinamido)propanoic acid] | 1.5 µM
Cc1ccc(-c2ccc(C(CC(C)C)Nc3ccc(C(=O)NCCC(=O)O)cn3)cc2)cn1 (racemic) [Example 1.36, (+/−)-3-(6-(3-methyl-1-(4-(6-methylpyridin-3-yl)phenyl)butylamino)nicotinamido)propanoic acid] | 0.87 µM
CC(C)(C)CC(Nc1ccc(C(=O)NCCC(=O)O)cn1)c1ccc(-c2ccc(C(F)(F)F)cc2)cc1 (racemic) [Example 1.33, (+/−)-3-(6-(3,3-dimethyl-1-(4′-(trifluoromethyl)biphenyl-4-yl)butylamino)nicotinamido)propanoic acid] | 0.12 µM
CC(C)CC(Nc1ccc(C(=O)NCCC(=O)O)cn1)c1ccc(-c2ccc(C(F)(F)F)cc2)nc1 (racemic) [Example 1.29, (+/−)-3-(6-(3-methyl-1-(6-(4-(trifluoromethyl)phenyl)pyridin-3-yl)butylamino)nicotinamido)propanoic acid] | 0.16 µM
CC(C)CC(Nc1ccc(C(=O)NCCC(=O)O)cn1)c1ccc(-c2cccc(F)c2)cc1 (racemic) [Example 1.41, (+/−)-3-(6-(1-(3′-fluorobiphenyl-4-yl)-3-methylbutylamino)nicotinamido)propanoic acid] | 0.45 µM
CC(C)CC(Nc1ccc(C(=O)NCc2nn[nH]n2)cn1)c1ccc(-c2ccc(C(F)(F)F)cc2)cc1 (racemic) [Example 1.21, (+/−)-N-((2H-tetrazol-5-yl)methyl)-6-(3-methyl-1-(4′-(trifluoromethyl)biphenyl-4-yl)butylamino)nicotinamide] | 0.52 µM
CC(C)CC(Nc1ccc(C(=O)NCCC(=O)O)cn1)c1ccc(-c2ccc(C(F)(F)F)cc2)cc1 (racemic) [Example 1.2, (+/−)-3-(6-(3-methyl-1-(4′-(trifluoromethyl)biphenyl-4-yl)butylamino)nicotinamido)propanoic acid] | 0.14 µM

The remaining lines, values ahead:

Kb | SMILES
2.7 µM | CC(C)CC(Nc1cnc(-c2ccc(C(F)(F)F)cc2)nc1)c1ccc(C(=O)NCCC(=O)O)nc1 (stereo not drawn) [Example 4.32]
0.053 µM | CC(C)CC(Nc1ccc(C(=O)N(C)CCC(=O)O)cn1)c1ccc(-c2ccc(C(F)(F)F)cc2)cc1 (single isomer, unassigned) [Example 4.6, 3-(N-methyl-6-((3-methyl-1-(4′-(trifluoromethyl)-[1,1′-biphenyl]-4-yl)butyl)amino)nicotinamido)propanoic acid (single enantiomer)]
0.075 µM | CCCC(Nc1ccc(C(=O)NCCC(=O)O)cn1)c1ccc(-c2ccc(C(F)(F)F)cc2)c(OC)c1 (stereo not drawn) [Example 4.23, 3-(6-(1-(2-methoxy-4′-(trifluoromethyl)biphenyl-4-yl)butylamino)nicotinamido)propanoic acid]
6 µM | CC(Oc1ccc(-c2ccc(C(F)(F)F)cc2)cc1)c1ccc(C(=O)NCCC(=O)O)cn1 (racemic) [Example 3.3, (+/−)-3-(6-(1-(4′-(trifluoromethyl)biphenyl-4-yloxy)ethyl)nicotinamido) propanoic acid]
0.22 µM | O=C(O)CCNC(=O)c1ccc(NC(c2ccc(-c3ccc(C(F)(F)F)cc3)cc2)C2CCOCC2)nc1 (racemic) [Example 4.7, (±)-3-(6-(((tetrahydro-2H-pyran-4-yl)(4′-(trifluoromethyl)-[1,1′-biphenyl]-4-yl)methyl)amino)nicotinamido)propanoic acid]
0.055 µM | CC(C)CC(Nc1cnc(-c2ccc(C(F)(F)F)cc2)nc1)c1ccc(C(=O)NCCC(=O)O)cc1 (stereo not drawn) [Example 4.31, 3-(4-(3-methyl-1-(2-(4-(trifluoromethyl)phenyl)pyrimidin-5-ylamino)butyl)benzamido)propanoic acid]
0.18 µM | Cc1cc(NC(CC(C)C)c2ccc(C(=O)NCCC(=O)O)cn2)cnc1-c1ccc(Cl)cc1 (single isomer, unassigned; isomer 1) [Example 4.16, 3-(6-(1-(6-(4-chlorophenyl)-5-methylpyridin-3-ylamino)-3-methylbutyl)nicotinamido)propanoic acid, Isomer 1]
0.37 µM | Cc1cc(C(CC(C)C)Nc2ccc(C(=O)NCCC(=O)O)cn2)cnc1-c1ccc(C(F)(F)F)cc1 (stereo not drawn) [Example 4.15, 3-(6-(3-methyl-1-(5-methyl-6-(4-(trifluoromethyl)phenyl)pyridin-3-yl)butylamino)nicotinamido)propanoic acid]
